Laboratory results from patent US5620973A, “Tetracyclic condensed heterocyclic compounds and their use” (priority 1993, dated 1997).
Counter-ions that a name gives are not always drawn. Like-named read-outs stand apart in the source and are kept apart here.

Columns and labels:
[1] = cited from earlier work; for anti-senile dementia activity: Int. J. Clin. Pharmacol. Ther. Toxicol. 29, 23-37, 1991
Acetylcholinesterase = biological target: T1, Acetylcholinesterase (Rattus norvegicus, UniProt P37136); assay: biochemical; parameters: species or system male Wistar rat
T1 construct: using the S1 fraction of a male Wistar rat cerebral cortex homogenate as a source of cholinesterase; from tissue; host or cells: male Wistar rat cerebral cortex homogenate, S1 fraction
T1 sequence (P37136 32-614): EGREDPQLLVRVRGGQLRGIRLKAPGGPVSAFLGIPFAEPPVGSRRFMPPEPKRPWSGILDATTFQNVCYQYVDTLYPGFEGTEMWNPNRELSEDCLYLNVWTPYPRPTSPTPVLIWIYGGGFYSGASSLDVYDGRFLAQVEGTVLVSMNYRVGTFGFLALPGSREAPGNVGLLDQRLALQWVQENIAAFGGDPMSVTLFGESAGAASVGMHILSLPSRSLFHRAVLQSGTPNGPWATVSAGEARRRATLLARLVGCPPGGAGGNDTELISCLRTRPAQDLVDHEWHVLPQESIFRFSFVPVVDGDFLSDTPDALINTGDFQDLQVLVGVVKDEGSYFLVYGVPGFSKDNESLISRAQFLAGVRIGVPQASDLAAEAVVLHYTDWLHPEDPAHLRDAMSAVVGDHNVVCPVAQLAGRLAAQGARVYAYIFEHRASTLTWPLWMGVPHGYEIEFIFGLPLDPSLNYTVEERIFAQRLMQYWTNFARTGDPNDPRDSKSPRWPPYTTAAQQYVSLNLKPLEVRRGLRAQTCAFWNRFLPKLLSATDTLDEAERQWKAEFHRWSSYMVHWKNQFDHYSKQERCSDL
Method: The cholinesterase inhibitory activity of the compound of this invention was evaluated using (acetyl[[^3 H])-acetylcholine. Thus, using the S1 fraction of a male Wistar rat cerebral cortex homogenate as a source of cholinesterase, (acetyl[^3 H])-acetylcholine as a substrate, and the compound of this invention as a test substance, the system was incubated for 30 minutes. The reaction was then stopped and a toluenic scincillator was added. After shaking, [^3 H]-acetic acid produced and transferred into the toluene layer was counted with a liquid scincillation counter to estimate the cholinesterase inhibitory activity of the test substance.

[2] = tested on: norepinephrine (NE) reuptake; assay: monoamine reuptake inhibitory activity, [^3 H]-norepinephrine (NE); type: biochemical, male JCl: Wistar rats; conditions: [^3 H]-NE 11 nM; P2 pellet of rat cerebral cortex and hippocampus; 37° C., 5 minutes; read-out: Monoamine uptake inhibitory activity IC50, NE
Method: (§1) The monoamine reuptake inhibitory activity of the compound of this invention was evaluated using [^3 H]-norepinephrine (NE) and [^3 H]-serotonin(5-HT).
(§2) Thus, the brain was enuleated from male JCl: Wistar rats (aged 9-13 weeks) and the cerebral cortex and the hippocampus were isolated. The tissue was homogenized (Potter, 5 strokes) with about 10-15 volumes of ice-cooled 0.32M sucrose and centrifuged at 1.000×g for 10 minutes. The supernatant was further centrifuged at 20,000×g for 20 minutes to provide a pellet (P2). This pellet was suspended in Krebs-Ringer bicarbonate solution (KRB) (KRB: 116 mM NaCl, 4.8 mM KCl, 1.3 mM CaCl2, 1,2 mM MgSO4, 1,2 mM NaH2 PO4, 25 mM NaHCO3, 0.1 mM EDTA-2Na, 11.1 mM D-glucose, 0.11 mM L-ascorbic acid, 0.01 mM pargyline-HCl; 95% O2 /5% CO2) and aliquots of the suspension were used for assays.
(§3) The test compound (10 μl as dissolved in DMSO at 100 times the final concentration) was mixed with 900 μl of the P2 suspension and the mixture was preincubated at 37° C. for 5 minutes. Then, 100 μl of [^3 H]-NE (final concentration 11 nM) or [^3 H]-5-HT (final concentration 10 nM) was added and the mixture was incubated at 37° C. for 5 minutes. […] The filter was transferred to a minature vial, 4 ml of scintillator was added, and the radioactivity was counted with a liquid scintillation counter. […]

[3] = tested on: serotonin (5-HT) reuptake; assay: monoamine reuptake inhibitory activity, [^3 H]-serotonin (5-HT); type: biochemical, male JCl: Wistar rats; conditions: [^3 H]-5-HT 10 nM; P2 pellet of rat cerebral cortex and hippocampus; 37° C., 5 minutes; read-out: Monoamine uptake inhibitory activity IC50, 5-HT
Method: as §1, §2, §3

[4] = S1 fraction of male Wistar rat cerebral cortex homogenate, 30 minutes incubation, read-out: Acetylcholinesterase inhibitory activity IC50

## Nc1c2c(nc3ccccc13)CCCC2 [THA, tacrine]
[1]
  anti-senile dementia activity: have been found to have anti-senile dementia activity
[1]; background
  hepatic impairment: severe hepatic impairment is often associated

## O=C(CCC1CCN(Cc2ccccc2)CC1)c1cc2c3c(c1)C1CCCCC1N3C(=O)CC2 (stereo not drawn) [Example 7, 5-[3-[1-(Phenylmethyl)-4-piperidinyl]1-oxopropyl]-2,3,6b, 7,8,9,10,10a-octahydro-1H-pyrido[3,2,1-jk]carbazol-6-one fumarate]
Acetylcholinesterase
  IC50: 0.00793 µM

## O=C(CCN1CCN(Cc2ccccc2)CC1)c1cc2c3c(c1)C1CCCCC1N3C(=O)CC2 (stereo not drawn) [Example 1, 5-[3-[4-(Phenylmethyl)-1-piperazinyl]-1-oxopropyl]-2,3,6b,7,8,9,10,10a-octahydro-1H-pyrido[3,2,1-jk]carbazol-6-one dihydrochloride]
Acetylcholinesterase; [4]
  IC50: 0.0775 µM

## O=C(CCN1CCN(Cc2cccc(Cl)c2)CC1)c1ccc2c(c1)CN1C(=O)c3ccccc3C1CC2 (stereo not drawn) [Example 6-2]
Acetylcholinesterase; [4]
  IC50: 0.0655 µM

## CN(C)CCCN1c2ccccc2CCc2ccccc21 [Imipramine, imipramine, reference compound]
[2]
  IC50: 1.12 µM
[3]
  IC50: 0.063 µM

## O=C(CCN1CCN(Cc2ccccc2)CC1)c1ccc2c(c1)CN1C(=O)c3ccccc3C1CC2 (stereo not drawn) [Example 2-1]
Acetylcholinesterase; [4]
  IC50: 0.0164 µM
[2]
  IC50: 1.04 µM
[3]
  IC50: 0.07 µM

## O=C(CCC1CCN(Cc2ccccc2)CC1)c1ccc2c(c1)CN1C(=O)c3ccccc3C1CC2 (stereo not drawn) [Example 4, 3-[3-[1-(Phenylmethyl)-4-piperidinyl]-1-oxopropyl]-7,11b,12,13-tetrahydro-5H-isoindolo[2,1-b][2]benzazepin-7-one hydrochloride]
Acetylcholinesterase
  IC50: 0.0024 µM

## CNC(=O)Oc1ccc2c(c1)[C@]1(C)CCN(C)[C@@H]1N2C (stereo in doubt) [Physostigmine, physostigmine]
[1]
  anti-senile dementia activity: have been found to have anti-senile dementia activity
[1]; background
  duration of action: short duration of action
  toxic potential: high toxic potential

## O=C(CCN1CCN(Cc2cccc(F)c2)CC1)c1ccc2c(c1)CN1C(=O)c3ccccc3C1CC2 (stereo not drawn) [Example 6-3]
Acetylcholinesterase; [4]
  IC50: 0.0174 µM
